Activity calls are given as the source filed them. The rule behind the calls is not given here.
Species: Homo sapiens
Experiment: Binding affinity to arylsulfatase assessed as fluorescence quenching at 10 uM at pH 7.5 after 1.5 hrs by fluorescence spectrophotometry

`CN(C)c1cccc2c(S(=O)(=O)NCC(O)c3ccc(OS(=O)(=O)O)cc3)cccc12` (stereo unspecified) was tested, and the Activity was “inactive”.

From ChEMBL document CHEMBL2057079, “Activity-based fluorescent probes for monitoring sulfatase activity” (Bioorg Med Chem Lett, 2012)
